In test [1] the target is N-methyl-D-aspartate receptor (NMDAR) NR1/NR2B (Homo sapiens, UniProt Q05586+Q13224). Put plainly: two-electrode voltage clamp in oocytes, inhibition concentration-response. It counts as cell-based.
In test [2] the target is γ-aminobutyric acid type A receptor (GABAAR) α1β2γ2s (Homo sapiens, UniProt P14867+P47870). As to the kind of experiment: whole-cell patch clamp, shift of GABA EC50. It is filed as cell-based. (Patch clamp records ionic current or voltage across a cell membrane.)
γ-aminobutyric acid type A receptor (GABAAR) α1β2γ2s, sequence (P14867 28-456): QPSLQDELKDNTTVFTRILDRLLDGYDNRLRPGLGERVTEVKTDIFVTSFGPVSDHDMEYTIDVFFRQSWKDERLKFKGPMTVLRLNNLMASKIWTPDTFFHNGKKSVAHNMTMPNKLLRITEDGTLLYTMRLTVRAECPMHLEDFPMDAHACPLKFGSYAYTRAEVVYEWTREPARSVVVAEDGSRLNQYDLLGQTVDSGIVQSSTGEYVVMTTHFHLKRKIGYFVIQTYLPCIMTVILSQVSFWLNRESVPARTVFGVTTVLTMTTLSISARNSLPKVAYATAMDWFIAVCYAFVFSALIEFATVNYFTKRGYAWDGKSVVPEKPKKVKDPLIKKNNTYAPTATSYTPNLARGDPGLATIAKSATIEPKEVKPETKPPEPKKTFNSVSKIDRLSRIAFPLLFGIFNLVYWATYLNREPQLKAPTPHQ
γ-aminobutyric acid type A receptor (GABAAR) α1β2γ2s, sequence (P47870 26-512): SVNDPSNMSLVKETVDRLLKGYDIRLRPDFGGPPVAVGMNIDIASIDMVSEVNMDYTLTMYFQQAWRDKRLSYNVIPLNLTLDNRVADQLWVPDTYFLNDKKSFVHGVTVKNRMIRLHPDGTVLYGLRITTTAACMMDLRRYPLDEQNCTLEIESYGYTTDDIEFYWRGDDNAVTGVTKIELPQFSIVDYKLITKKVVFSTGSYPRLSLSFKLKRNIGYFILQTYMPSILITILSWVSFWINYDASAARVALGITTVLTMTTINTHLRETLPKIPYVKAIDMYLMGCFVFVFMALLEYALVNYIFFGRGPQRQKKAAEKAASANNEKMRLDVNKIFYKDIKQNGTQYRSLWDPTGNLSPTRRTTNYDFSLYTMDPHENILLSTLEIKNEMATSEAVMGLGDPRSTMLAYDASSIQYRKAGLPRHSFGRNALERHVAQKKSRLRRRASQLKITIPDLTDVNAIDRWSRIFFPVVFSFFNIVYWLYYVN
γ-aminobutyric acid type A receptor (GABAAR) α1β2γ2s, sequence (P18507 40-475 partner): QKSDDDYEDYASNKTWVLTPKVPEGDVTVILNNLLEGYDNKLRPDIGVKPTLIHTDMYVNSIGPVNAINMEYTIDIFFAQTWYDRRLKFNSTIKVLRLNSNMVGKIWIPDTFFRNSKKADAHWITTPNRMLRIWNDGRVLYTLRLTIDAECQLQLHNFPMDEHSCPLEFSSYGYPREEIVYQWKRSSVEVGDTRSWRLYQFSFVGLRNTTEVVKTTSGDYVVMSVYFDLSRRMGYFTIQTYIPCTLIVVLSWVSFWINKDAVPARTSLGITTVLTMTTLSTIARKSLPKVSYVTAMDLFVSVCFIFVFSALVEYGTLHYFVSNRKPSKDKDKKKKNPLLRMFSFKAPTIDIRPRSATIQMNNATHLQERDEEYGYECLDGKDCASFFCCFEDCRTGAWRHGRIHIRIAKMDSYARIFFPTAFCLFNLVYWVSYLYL

N-methyl-D-aspartate receptor (NMDAR) NR1/NR2B, sequence (Q13224 27-1484, other chains not shown): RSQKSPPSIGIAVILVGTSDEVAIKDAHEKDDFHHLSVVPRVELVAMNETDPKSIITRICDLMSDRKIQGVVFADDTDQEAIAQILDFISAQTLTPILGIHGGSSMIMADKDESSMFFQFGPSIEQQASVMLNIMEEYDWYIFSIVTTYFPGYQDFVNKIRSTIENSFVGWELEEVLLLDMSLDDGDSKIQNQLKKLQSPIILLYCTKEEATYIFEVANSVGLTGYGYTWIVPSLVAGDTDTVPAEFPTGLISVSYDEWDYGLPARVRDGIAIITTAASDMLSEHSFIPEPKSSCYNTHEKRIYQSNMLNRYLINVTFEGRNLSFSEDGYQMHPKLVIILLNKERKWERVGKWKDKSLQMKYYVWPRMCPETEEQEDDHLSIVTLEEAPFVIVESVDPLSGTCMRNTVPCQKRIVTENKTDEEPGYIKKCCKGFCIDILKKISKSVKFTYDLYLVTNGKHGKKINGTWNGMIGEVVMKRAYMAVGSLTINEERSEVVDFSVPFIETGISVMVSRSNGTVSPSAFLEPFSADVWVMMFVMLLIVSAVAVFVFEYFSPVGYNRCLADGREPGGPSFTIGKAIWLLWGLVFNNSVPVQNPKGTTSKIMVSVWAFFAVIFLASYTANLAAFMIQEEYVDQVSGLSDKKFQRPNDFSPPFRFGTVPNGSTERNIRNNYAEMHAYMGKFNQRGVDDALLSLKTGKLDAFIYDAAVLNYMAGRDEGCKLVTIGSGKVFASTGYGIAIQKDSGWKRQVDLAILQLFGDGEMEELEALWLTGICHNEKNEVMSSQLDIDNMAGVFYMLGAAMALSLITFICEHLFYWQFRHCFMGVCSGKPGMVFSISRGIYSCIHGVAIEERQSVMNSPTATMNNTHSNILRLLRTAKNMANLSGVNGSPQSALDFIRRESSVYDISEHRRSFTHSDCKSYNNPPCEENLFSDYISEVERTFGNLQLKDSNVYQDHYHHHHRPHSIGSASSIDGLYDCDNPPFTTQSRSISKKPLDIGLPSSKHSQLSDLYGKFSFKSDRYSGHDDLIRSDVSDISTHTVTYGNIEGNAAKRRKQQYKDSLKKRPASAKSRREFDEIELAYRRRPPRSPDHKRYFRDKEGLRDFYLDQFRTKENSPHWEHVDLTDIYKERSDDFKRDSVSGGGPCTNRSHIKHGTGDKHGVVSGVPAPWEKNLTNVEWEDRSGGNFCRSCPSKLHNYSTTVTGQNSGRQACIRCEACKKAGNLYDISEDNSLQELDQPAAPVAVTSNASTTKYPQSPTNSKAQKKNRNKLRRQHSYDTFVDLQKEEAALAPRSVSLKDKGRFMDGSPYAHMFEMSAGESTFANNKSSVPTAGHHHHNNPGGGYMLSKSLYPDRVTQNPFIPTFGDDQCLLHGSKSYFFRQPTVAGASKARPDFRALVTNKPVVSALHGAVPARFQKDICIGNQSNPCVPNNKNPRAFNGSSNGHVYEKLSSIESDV

A word on the IC50: it is the concentration at which inhibition is half-maximal. A low value points to higher potency. In test [1], `FC(F)OC(Cl)C(F)(F)F` (stereo not drawn) [ISO, isoflurane] came in with an IC50 of 2.4 mM.
On the same count and under the same terms, in the case of `c1ccccc1` [benzene] it was 0.34 ± 0.04 mM.
Turning to `ClC(Cl)Cl` [chloroform], in test [2], the “whole-cell patch clamp, shift of GABA EC50” value is “Both halothane and chloroform decreased the GABA EC50 in a dose dependent and saturable manner”.

The values above are taken from publication PMC2493416 (Anesthesia and analgesia, 2008).
